Measured values published in patent US11498899B2, “Nitrone herbicides” (FMC Corporation, priority 2016, dated 2022).

Assays:
[1] = tested on: barnyardgrass (Echinochloa crus-galli); experiment: Test A preemergence, visual injury rating 0-100 (0 no effect, 100 complete control); type: in vivo
[2] = tested on: foxtail, giant (giant foxtail, Setaria faberii); experiment: Test A preemergence, visual injury rating 0-100; type: in vivo
kochia (Kochia scoparia) [3] = experiment: Test A preemergence, visual injury rating 0-100; type: in vivo
[4] = tested on: pigweed (Amaranthus retroflexus); experiment: Test A preemergence, visual injury rating 0-100; type: in vivo
[5] = tested on: ragweed (common ragweed, Ambrosia elatior); experiment: Test A preemergence, visual injury rating 0-100; type: in vivo
[6] = tested on: ryegrass, Italian (Italian ryegrass, Lolium multiflorum); experiment: Test A preemergence, visual injury rating 0-100; type: in vivo
[7] = tested on: barnyardgrass (Echinochloa crus-galli); experiment: Test A postemergence, visual injury rating 0-100; type: in vivo; conditions: 0 to 100 scale
[8] = tested on: blackgrass (Alopecurus myosuroides); experiment: Test A postemergence, visual injury rating 0-100; type: in vivo; conditions: 0 to 100 scale
corn (Zea mays) = experiment: Test A postemergence, visual injury rating 0-100; type: in vivo; conditions: 0 to 100 scale
[9] = tested on: foxtail, giant (giant foxtail, Setaria faberii); experiment: Test A postemergence, visual injury rating 0-100; type: in vivo; conditions: 0 to 100 scale
[10] = tested on: galium (catchweed bedstraw, Galium aparine); experiment: Test A postemergence, visual injury rating 0-100; type: in vivo; conditions: 0 to 100 scale
kochia (Kochia scoparia) [11] = experiment: Test A postemergence, visual injury rating 0-100; type: in vivo; conditions: 0 to 100 scale
[12] = tested on: pigweed (Amaranthus retroflexus); experiment: Test A postemergence, visual injury rating 0-100; type: in vivo; conditions: 0 to 100 scale
[13] = tested on: ragweed (common ragweed, Ambrosia elatior); experiment: Test A postemergence, visual injury rating 0-100; type: in vivo; conditions: 0 to 100 scale
[14] = tested on: ryegrass, Italian (Italian ryegrass, Lolium multiflorum); experiment: Test A postemergence, visual injury rating 0-100; type: in vivo; conditions: 0 to 100 scale
[15] = tested on: wheat (Triticum aestivum); experiment: Test A postemergence, visual injury rating 0-100; type: in vivo; conditions: 0 to 100 scale
[16] = tested on: ducksalad (Heteranthera limosa); experiment: Test B flooded paddy test, visual rating 0-100; conditions: Flood, 250 g ai/ha, applied to paddy water, rated after 13 to 15 days
[17] = tested on: barnyardgrass (Echinochloa crus-galli); experiment: Test B flooded paddy test, visual rating 0-100; conditions: Flood, 250 g ai/ha, applied to paddy water, rated after 13 to 15 days
rice (Oryza sativa) = experiment: Test B flooded paddy test, visual rating 0-100 (0 no effect, 100 complete control); conditions: Flood, 250 g ai/ha, applied to paddy water, rated after 13 to 15 days
[18] = 125 g ai/ha, 0 to 100 scale (0 no effect, 100 complete control), approx. 10 days

Row | SMILES | Barnyardgrass plant response rating ([7]; 125 g ai/ha) | Barnyardgrass plant response rating ([7]; 500 g ai/ha) | Blackgrass plant response rating ([8]; 125 g ai/ha) | Blackgrass plant response rating ([8]; 500 g ai/ha) | Corn plant response rating (corn (Zea mays); 125 g ai/ha) | Corn plant response rating (corn (Zea mays); 500 g ai/ha) | Foxtail, Giant plant response rating ([9]; 125 g ai/ha) | Foxtail, Giant plant response rating ([9]; 500 g ai/ha) | Galium plant response rating ([10]; 125 g ai/ha) | Galium plant response rating ([10]; 500 g ai/ha) | Kochia plant response rating (kochia (Kochia scoparia) [11]; 125 g ai/ha) | Kochia plant response rating (kochia (Kochia scoparia) [11]; 500 g ai/ha) | Pigweed plant response rating ([12]; 125 g ai/ha) | Pigweed plant response rating ([12]; 500 g ai/ha) | Ragweed plant response rating ([13]; 125 g ai/ha) | Ragweed plant response rating ([13]; 500 g ai/ha) | Ryegrass, Italian plant response rating ([14]; 125 g ai/ha) | Ryegrass, Italian plant response rating ([14]; 500 g ai/ha) | Wheat plant response rating ([15]; 125 g ai/ha) | Wheat plant response rating ([15]; 500 g ai/ha) | also measured
1 | CC(C)C1=[N+]([O-])C(C(=O)Nc2cccc(F)c2F)C(c2ccc(C(F)(F)F)cc2)C1 (racemic) [Compound 122] | 0 | 0 | 0 | 0 | 0 | 0 | 0 | 0 | 0 | 0 | 0 | 0 | 0 | 0 | 0 | 0 | 0 | 0 | 0 | 0 | Barnyardgrass plant response rating [1, 18]: 0; Barnyardgrass plant response rating (0 to 100 scale) ([1]; 500 g ai/ha): 0; Foxtail, Giant plant response rating [2, 18]: 0; Foxtail, Giant plant response rating (0 to 100 scale) ([2]; 500 g ai/ha): 0; Kochia plant response rating (kochia (Kochia scoparia) [3]; [18]): 0; Kochia plant response rating (0 to 100 scale) (kochia (Kochia scoparia) [3]; 500 g ai/ha): 0; Pigweed plant response rating [4, 18]: 0; Pigweed plant response rating (0 to 100 scale) ([4]; 500 g ai/ha): 0; Ragweed plant response rating [5, 18]: 0; Ragweed plant response rating (0 to 100 scale) ([5]; 500 g ai/ha): 0; Ryegrass, Italian plant response rating [6, 18]: 0; Ryegrass, Italian plant response rating (0 to 100 scale) ([6]; 500 g ai/ha): 0; Ducksalad plant response rating (0 to 100 scale) [16]: 0; Barnyardgrass plant response rating (0 to 100 scale) [17]: 0; Rice plant response rating (0 to 100 scale) (rice (Oryza sativa)): 0
2 | CC1=[N+]([O-])[C@@H](C(=O)Nc2cccc(F)c2F)[C@H](c2ccc(C(F)(F)F)cc2)C1 (relative stereo) [Compound 2, trans-N-(2,3-difluorophenyl)-3,4-dihydro-5-methyl-3-[4-(trifluoromethyl)phenyl]-2H-pyrrole-2-carboxamide 1-oxide] | 70 | 90 | 20 | 90 | 40 | 80 | 90 | 90 | 70 | 70 | 40 | 80 | 40 | 80 | 30 | 60 | 60 | 70 | 40 | 70 | Barnyardgrass plant response rating (0 to 100 scale) ([1]; 125 g ai/ha): 90; Barnyardgrass plant response rating ([1]; 500 g ai/ha, 0 to 100 scale): 100; Foxtail, Giant plant response rating (0 to 100 scale) ([2]; 125 g ai/ha): 100; Foxtail, Giant plant response rating ([2]; 500 g ai/ha, 0 to 100 scale): 100; Kochia plant response rating (0 to 100 scale) (kochia (Kochia scoparia) [3]; 125 g ai/ha): 90; Kochia plant response rating (kochia (Kochia scoparia) [3]; 500 g ai/ha, 0 to 100 scale): 80; Pigweed plant response rating (0 to 100 scale) ([4]; 125 g ai/ha): 90; Pigweed plant response rating ([4]; 500 g ai/ha, 0 to 100 scale): 90; Ragweed plant response rating (0 to 100 scale) ([5]; 125 g ai/ha): 40; Ragweed plant response rating ([5]; 500 g ai/ha, 0 to 100 scale): 90; Ryegrass, Italian plant response rating (0 to 100 scale) ([6]; 125 g ai/ha): 30; Ryegrass, Italian plant response rating ([6]; 500 g ai/ha, 0 to 100 scale): 50; Ducksalad plant response rating (0 to 100 scale) [16]: 90; Barnyardgrass plant response rating (0 to 100 scale) [17]: 70; Rice plant response rating (0 to 100 scale) (rice (Oryza sativa)): 0
3 | CC1=[N+]([O-])[C@@H](C(=O)Nc2cccc(F)c2F)[C@H](c2ccc(Cl)cc2)C1 (relative stereo) [Compound 5, trans-3-(4-chlorophenyl)-N-(2,3-difluorophenyl)-3,4-dihydro-5-methyl-2H-pyrrole-2-carboxamide 1-oxide] | 90 | 90 | 20 | 50 | 0 | 50 | 60 | 70 | 50 | 80 | 60 | 70 | 40 | 70 | 30 | 70 | 0 | 30 | 20 | 80 | Barnyardgrass plant response rating (0 to 100 scale) ([1]; 125 g ai/ha): 100; Barnyardgrass plant response rating ([1]; 500 g ai/ha, 0 to 100 scale): 100; Foxtail, Giant plant response rating (0 to 100 scale) ([2]; 125 g ai/ha): 100; Foxtail, Giant plant response rating ([2]; 500 g ai/ha, 0 to 100 scale): 100; Kochia plant response rating (0 to 100 scale) (kochia (Kochia scoparia) [3]; 125 g ai/ha): 10; Kochia plant response rating (kochia (Kochia scoparia) [3]; 500 g ai/ha, 0 to 100 scale): 60; Pigweed plant response rating (0 to 100 scale) ([4]; 125 g ai/ha): 50; Pigweed plant response rating ([4]; 500 g ai/ha, 0 to 100 scale): 90; Ragweed plant response rating (0 to 100 scale) ([5]; 125 g ai/ha): 50; Ragweed plant response rating ([5]; 500 g ai/ha, 0 to 100 scale): 90; Ryegrass, Italian plant response rating (0 to 100 scale) ([6]; 125 g ai/ha): 10; Ryegrass, Italian plant response rating ([6]; 500 g ai/ha, 0 to 100 scale): 80; Ducksalad plant response rating (0 to 100 scale) [16]: 100; Barnyardgrass plant response rating (0 to 100 scale) [17]: 65; Rice plant response rating (0 to 100 scale) (rice (Oryza sativa)): 0
4 | CC1=[N+]([O-])[C@H](C(=O)Nc2cccc(F)c2F)[C@@H](c2ccc(C)cc2)C1 (relative stereo) [Compound 6, rel-(2S,3R)—N-(2,3-Difluorophenyl)-3,4-dihydro-5-methyl-3-(4-methylphenyl)-2H-pyrrole-2-carboxamide 1-oxide] | 90 | 90 | 50 | 80 | 30 | 80 | 90 | 90 | 50 | 70 | 30 | 70 | 40 | 50 | 0 | 60 | 50 | 60 | 60 | 80 | Barnyardgrass plant response rating (0 to 100 scale) ([1]; 125 g ai/ha): 100; Barnyardgrass plant response rating ([1]; 500 g ai/ha, 0 to 100 scale): 100; Foxtail, Giant plant response rating (0 to 100 scale) ([2]; 125 g ai/ha): 100; Foxtail, Giant plant response rating ([2]; 500 g ai/ha, 0 to 100 scale): 100; Kochia plant response rating (0 to 100 scale) (kochia (Kochia scoparia) [3]; 125 g ai/ha): 70; Kochia plant response rating (kochia (Kochia scoparia) [3]; 500 g ai/ha, 0 to 100 scale): 70; Pigweed plant response rating (0 to 100 scale) ([4]; 125 g ai/ha): 80; Pigweed plant response rating ([4]; 500 g ai/ha, 0 to 100 scale): 90; Ragweed plant response rating (0 to 100 scale) ([5]; 125 g ai/ha): 40; Ragweed plant response rating ([5]; 500 g ai/ha, 0 to 100 scale): 100; Ryegrass, Italian plant response rating (0 to 100 scale) ([6]; 125 g ai/ha): 80; Ryegrass, Italian plant response rating ([6]; 500 g ai/ha, 0 to 100 scale): 90; Ducksalad plant response rating (0 to 100 scale) [16]: 100; Barnyardgrass plant response rating (0 to 100 scale) [17]: 85; Rice plant response rating (0 to 100 scale) (rice (Oryza sativa)): 0
5 | CC1=[N+]([O-])[C@H](C(=O)Nc2cccc(F)c2F)[C@@H](c2ccc(C(F)(F)F)c(F)c2)C1 (relative stereo) [Compound 61, rel-(2S,3R)—N-(2,3-Difluorophenyl)-3-[3-fluoro-4-(trifluoromethyl)phenyl]-3,4-dihydro-5-methyl-2H-pyrrole-2-carboxamide 1-oxide] | 70 | 90 | 50 | 90 | 50 | 90 | 70 | 90 | 50 | 60 | 0 | 30 | 30 | 50 | 0 | 50 | 80 | 80 | 70 | 90 | Barnyardgrass plant response rating (0 to 100 scale) ([1]; 125 g ai/ha): 90; Barnyardgrass plant response rating (0 to 100 scale) ([1]; 500 g ai/ha): 90; Foxtail, Giant plant response rating (0 to 100 scale) ([2]; 125 g ai/ha): 90; Foxtail, Giant plant response rating (0 to 100 scale) ([2]; 500 g ai/ha): 90; Kochia plant response rating (0 to 100 scale) (kochia (Kochia scoparia) [3]; 125 g ai/ha): 30; Kochia plant response rating (0 to 100 scale) (kochia (Kochia scoparia) [3]; 500 g ai/ha): 80; Pigweed plant response rating (0 to 100 scale) ([4]; 125 g ai/ha): 80; Pigweed plant response rating (0 to 100 scale) ([4]; 500 g ai/ha): 90; Ragweed plant response rating (0 to 100 scale) ([5]; 125 g ai/ha): 50; Ragweed plant response rating (0 to 100 scale) ([5]; 500 g ai/ha): 80; Ryegrass, Italian plant response rating (0 to 100 scale) ([6]; 125 g ai/ha): 80; Ryegrass, Italian plant response rating (0 to 100 scale) ([6]; 500 g ai/ha): 90; Ducksalad plant response rating (0 to 100 scale) [16]: 74; Barnyardgrass plant response rating (0 to 100 scale) [17]: 65; Rice plant response rating (0 to 100 scale) (rice (Oryza sativa)): 0
